Results from patent US12084426B2, “Indazole carboxamides as kinase inhibitors” (BRISTOL-MYERS SQUIBB COMPANY, priority 2018, dated 2024).

System: MLKL phosphorylation in HT29-L23 human colorectal adenocarcinoma cells
Test: MLKL Phosphorylation High-Content Assay
Type: cell-based
Conditions: Homo sapiens, 6 h, necroptosis induced with TNFα, SMAC mimetic and Z-VAD, read-out: pMLKL (IC50)
Procedure: MLKL Phosphorylation High-Content Assay
HT29-L23 human colorectal adenocarcinoma cells were maintained in RPMI 1640 medium containing 10% heat-inactivated FBS, 1% Penicillin-Streptomycin and 10 mM HEPES. Cells were seeded at 2,000 cells/well in 384 well tissue culture-treated microplates (Greiner #781090-3B) and incubated at 37° C. (5% CO2/95% O2) for 2 d. On the day of the assay, the cells were treated with test compounds at final concentrations of 6.25 to 0.106 μM for 30 min at 37° C. (5% CO2/95% O2). Necroptosis was induced using a mixture of human TNFα (35 ng/mL) (Peprotech #300-01A), SMAC mimetic (from US 2015/0322111 A1) (700 nM) and Z-VAD (140 nM) (BD pharmingen #51-6936). Following 6 h incubation at 37° C. (5% CO2/95% O2), the cells were fixed with 4% formaldehyde (ACROS 11969-0010) for 15 min at rt, then permeabilized with phosphate buffered saline (PBS) containing 0.2% Triton-X-100 for 10 min. MLKL phosphorylation was detected using anti-MLKL (phospho S358) antibody (Abcam #ab187091) (1:1000 dilution in Blocking Buffer [PBS supplemented with 0.1% BSA]) with ON incubation at 4° C. After washing three times in PBS, goat anti-rabbit Alexa-488 (1:1000 dilution) (Life Technologies, A11008) and Hoechst 33342 (Life Technologies, H3570) (1:2000 dilution) in Blocking Buffer were added for 1 h at rt. Following another three cycles of washes in PBS, the microplates were sealed, and cellular images were acquired in the Cellomics ArrayScan VTI high-content imager equipped with an X1 camera. Fluorescent images were taken using a 10× objective and the 386-23 BGRFRN_BGRFRN and 485-20 BGRFRN_BGRFRN filter sets, for nuclei and MLKL phosphorylation, respectively. The image sets were analyzed using the Compartmental Analysis Bioapplication software (Cellomics). The level of MLKL phosphorylation was quantified as MEAN_CircRingAvgIntenRatio. The maximal inhibitory response was defined by the activity induced by Necls (CAS #: 852391-15-2, 6.25 μM). The IC50 value was defined as the concentration of compound that produces 50% of the maximal inhibition. The data were fitted using the 4-parameter logistic equation to calculate the IC50 and Ymax values.

Row | SMILES | IC50 [nM]
1 | CNC(=O)c1n[nH]c2cc(N3CCOC(C(=O)NCCC(O)c4ccc(Cl)cc4)C3)ccc12 (centres unmarked) [Example 25, 6-(2-{[3-(4-chlorophenyl)-3-hydroxypropyl]carbamoyl}morpholin-4-yl)-N-methyl-1H-indazole-3-carboxamide] | 4500
2 | CNC(=O)c1n[nH]c2cc(N3CCOC(C(=O)NCCC(O)c4ccc(F)c(F)c4)C3)ccc12 (centres unmarked) [Example 3, 6-(2-{[3-(3,4-difluorophenyl)-3-hydroxypropyl]carbamoyl}morpholin-4-yl)-N-methyl-1H-indazole-3-carboxamide] | 4300
3 | CNC(=O)c1n[nH]c2cc(N3CCNC(C(=O)NCCC(C)c4ccccc4)C3)ccc12 (centres unmarked) [Example 4, N-methyl-6-{3-[(3-phenylbutyl)carbamoyl]piperazin-1-yl}-1H-indazole-3-carboxamide] | 3200
4 | CNC(=O)c1n[nH]c2cc(N3CCOC(C(=O)NCC4CC4c4cccc(F)c4)C3)ccc12 (centres unmarked) [Example 23] | 1600
5 | CNC(=O)c1n[nH]c2cc(N3CCCC(C(=O)NCc4ccccc4Oc4ccccc4)C3)ccc12 (racemic) [Example 8, N-methyl-6-(3-{ [(2-phenoxyphenyl)methyl]carbamoyl}piperidin-1-yl)-1H-indazole-3-carboxamide] | 110
6 | CNC(=O)c1n[nH]c2cc(N3CCCC(C(=O)NCCC(O)c4ccccc4)C3)ccc12 (centres unmarked) [Example 10, 6-{3-[(3-hydroxy-3-phenylpropyl)carbamoyl]piperidin-1-yl}-N-methyl-1H-indazole-3-carboxamide] | 3600
7 | CNC(=O)c1n[nH]c2cc(N3CCCC(C(=O)NCC(O)COc4ccccc4)C3)ccc12 (single isomer, unassigned) [Example 6, 6-{3-[(2-hydroxy-3-phenoxypropyl)carbamoyl]piperidin-1-yl}-N-methyl-1H-indazole-3-carboxamide] | 4300
8 | CNC(=O)c1n[nH]c2cc(N3CCN(C)C(C(=O)NCCC(O)c4ccccc4)C3)ccc12 (centres unmarked) [Example 18, 6 6-{3-[(3-hydroxy-3-phenylpropyl)carbamoyl]-4-methylpiperazin-1-yl}-N-methyl-1H-indazole-3-carboxamide] | 2400
9 | CNC(=O)c1n[nH]c2cc(N3CCCC(C(=O)NCc4ccccc4OC(F)(F)F)C3)ccc12 (centres unmarked) [Example 1, N-methyl-6-[3-({[2-(trifluoromethoxy)phenyl]methyl}carbamoyl)piperidin-1-yl]-1H-indazole-3-carboxamide] | 660
10 | CNC(=O)c1n[nH]c2cc(N3CCCC(C(=O)NC4CCCC(c5ccccc5)C4)C3)ccc12 (single isomer, unassigned) [Example 15, N-methyl-6-{3-[(3-phenylcyclohexyl)carbamoyl]piperidin-1-yl}-1H-indazole-3-carboxamide] | 1900
11 | CNC(=O)c1n[nH]c2cc(N3CCN(C)C(C(=O)NCc4ccccc4OC)C3)ccc12 (centres unmarked) [Example 2, 6-(3-{[(2-methoxyphenyl)methyl]carbamoyl}-4-methylpiperazin-1-yl)-N-methyl-1H-indazole-3-carboxamide] | > 6200
12 | CNC(=O)c1n[nH]c2cc(N3CCOC(C(=O)NCCC(C)c4ccccc4)C3)ccc12 (centres unmarked) [Example 22, N-methyl-6-{2-[(3-phenylbutyl)carbamoyl]morpholin-4-yl}-1H-indazole-3-carboxamide] | 440
13 | CNC(=O)c1n[nH]c2cc(N3CCCC(C(=O)NCCCOC4CCCCC4)C3)ccc12 (racemic) [Example 9, 6-(3-{[3-(cyclohexyloxy)propyl]carbamoyl}piperidin-1-yl)-N-methyl-1H-indazole-3-carboxamide] | 3500
14 | CNC(=O)c1n[nH]c2cc(N3CCOC(C(=O)NCCC(C)c4ccc(F)cc4)C3)ccc12 (centres unmarked) [Example 24, 6-(2-{[3-(4-fluorophenyl)butyl]carbamoyl}morpholin-4-yl)-N-methyl-1H-indazole-3-carboxamide] | 110
15 | CNC(=O)c1n[nH]c2cc(N3CCCC(C(=O)NCCC(O)c4ccc(F)c(F)c4)C3)ccc12 (centres unmarked) [Example 14, 6-(3-{[3-(3,4-difluorophenyl)-3-hydroxypropyl]carbamoyl}piperidin-1-yl)-N-methyl-1H-indazole-3-carboxamide] | 2400
16 | CNC(=O)c1n[nH]c2cc(N3CCN(C)C(C(=O)NCCC(C)c4ccc(F)cc4)C3)ccc12 (centres unmarked) [Example 19, 6-(3-{[3-(4-fluorophenyl)butyl]carbamoyl}-4-methylpiperazin-1-yl)-N-methyl-1H-indazole-3-carboxamide] | 690
17 | CNC(=O)c1n[nH]c2cc(N3CCN(C)C(C(=O)NCCC(C)c4ccccc4)C3)ccc12 (centres unmarked) [Example 20, N-methyl-6-{4-methyl-3-[(3-phenylbutyl)carbamoyl]piperazin-1-yl}-1H-indazole-3-carboxamide] | 2300
18 | CNC(=O)c1n[nH]c2cc(N3CCOC(C(=O)NC4CCCC(c5ccccc5)C4)C3)ccc12 (centres unmarked) [Example 26, N-methyl-6-{2-[(3-phenylcyclohexyl)carbamoyl]morpholin-4-yl}-1H-indazole-3-carboxamide] | 2500
19 | CNC(=O)c1n[nH]c2cc(N3CCCC(C(=O)NCCC(C)c4ccccc4)C3)ccc12 (centres unmarked) [Example 17, N-methyl-6-{3-[(3-phenylbutyl)carbamoyl]piperidin-1-yl}-1H-indazole-3-carboxamide] | 200
20 | CNC(=O)c1n[nH]c2cc(N3CCOC(C(=O)Nc4cnn(Cc5ccccc5)c4)C3)ccc12 (racemic) [Example 21, 6-{2-[(1-benzyl-1H-pyrazol-4-yl)carbamoyl]morpholin-4-yl}-N-methyl-1H-indazole-3-carboxamide] | 1200
21 | CNC(=O)c1n[nH]c2cc(N3CCCC(C(=O)NCc4ccccc4OCC4CC4)C3)ccc12 (racemic) [Example 12, 6-[3-({[2-(cyclopropylmethoxy)phenyl]methyl}carbamoyl)piperidin-1-yl]-N-methyl-1H-indazole-3-carboxamide] | 290
22 | CNC(=O)c1n[nH]c2cc(C3CCCN(C(=O)NCCC(C)c4ccccc4)C3)ccc12 (centres unmarked) [Example 5, N-methyl-6-{1-[(3-phenylbutyl)carbamoyl]piperidin-3-yl}-1H-indazole-3-carboxamide] | 190

Same assay, conditions: necroptosis induced with TNFα, SMAC mimetic and Z-VAD, 6 h, read-out: pMLKL (IC50)

Row | SMILES | IC50 [nM]
23 | CNC(=O)c1n[nH]c2cc(N3CCCC(C(=O)NC4CCCC(c5ccccc5)C4)C3)ccc12 (racemic) [Example 16, N-methyl-6-{3-[(3-phenylcyclohexyl)carbamoyl]piperidin-1-yl}-1H-indazole-3-carboxamide] | 3100
24 | CNC(=O)c1n[nH]c2cc(N3CCCC(C(=O)NCC(O)COc4ccccc4)C3)ccc12 (single isomer, unassigned) [Example 7, 6-{3-[(2-hydroxy-3-phenoxypropyl)carbamoyl]piperidin-1-yl}-N-methyl-1H-indazole-3-carboxamide] | 2200
25 | CNC(=O)c1n[nH]c2cc(N3CCCC(C(=O)Nc4cnn(Cc5ccccc5)c4)C3)ccc12 (centres unmarked) [Example 11, 6-{3-[(1-benzyl-1H-pyrazol-4-yl)carbamoyl]piperidin-1-yl}-N-methyl-1H-indazole-3-carboxamide] | 2500
26 | CNC(=O)c1n[nH]c2cc(N3CCCC(C(=O)NCCCOc4ccc(F)cc4)C3)ccc12 (centres unmarked) [Example 13, 6-(3-{[3-(4-fluorophenoxy)propyl]carbamoyl}piperidin-1-yl)-N-methyl-1H-indazole-3-carboxamide] | 3200
